The values that follow come from patent publication US7960375B2, “8-chloro-2,3-benzodiazepine derivatives” (priority 2003, dated 2011).

The test system of data set [1] is mice. The data set can be described thus: Permanent focal cerebral ischemia in mice. In kind it is in vivo. As to conditions: for Neuroprotective effect (necrotic brain surface area): 30 min after surgery, male NMRI mice, *p < 0.05; for dose that statistically significantly decreased the necrotic surface area: permanent focal ischemia, mice. As to the method: Permanent Focal Cerebral Ischemia in Mice
In these experiments a modified method of Karkoutly et al. (1990) was used. Male NMRI mice weighing 30-35 g were anaesthetized with 2,2,2-tribromoethanol at 500 mg/kg (20 ml/kg) administered i.p. The surgical procedure was performed according to Welsh et al. (1987). After drilling a hole into the skull the distal branch of the middle cerebral artery was electrocoagulated. Test compounds were administered i.p. 30 min after surgery. Two days later the animals were deeply anaesthetized with sodium pentobarbital (120 mg/kg i.p.). The brain was perfused through the left ventricle of the heart with a 4% solution of 2,3,5-triphenyltetrazolium chloride (TTC). One hour later the animals were decapitated, the brains were removed and placed into ice-cold saline for a few min. Then the brains were fixed in 8% formalin solution for 24 hours. The necrotic (non-stained with TTC) brain surface area was measured by means of an image analyser computer system (DigiCell for Windows 4.0). Statistical significance was assessed using ANOVA followed by Duncan's test.

Data set [2] deals with mice. The data set can be described thus: Maximal electroshock (MES) test in mice. In kind it is in vivo. To be noted: male NMRI mice, electroshock 30 min after ip. treatment. As to the method:
Maximal Electroshock (MES) Test in Mice
The experiments were performed according to Swinyard et al. (1952). Male NMRI mice weighing 20 to 25 g were treated intraperitoneally with the test compounds administered in a volume of 10 ml/kg. […] The number of animals showing positive reaction was counted in each group. The dose of test substance causing 50% (ED50) inhibition was calculated according to the method of Litchfield and Wilcoxon (1949).
MES=maximal electroshock (in mice): electroshock of sufficient current intensity applied through corneal electrodes to mice causes tonic extensor convulsion of the hind legs.
On the technique in general: Protection in the maximal electroshock model is a classic sign of anticonvulsant action.

A short description of data set [3]: Study of toxic effects in rats (body weight gain). As to conditions: female Wistar rats, 15 mg/kg/day orally for 7 days; mean ± standard error of the mean; control 17.4 ± 1.4. In kind it is in vivo. Here is the method: Study of Toxic Effects in Rats
The study was performed in female Wistar rats. On the day preceding the first treatment all animals were weighed and randomly allocated into treatment groups (10 animals/group). The test compounds were suspended in 0.4% hydroxymethyl cellulose solution (Methocell F4 M, Daw Chemical Company, USA) and were administered orally once a day for 7 days. The dose of non-chiral compounds according to the examples 8 and 9 was 15 mg/kg/day.
Animals of the control group were treated with the vehicle. The weight of the animals was registered every day. Weight gain was the difference between body weights on the first day and last day of the experiment. Toxicity of the test compounds was shown as a decrease in body weight or negative weight gain.
BWG=body weight gain: the difference between body weights on the first and last days of the experiment given as mean ± standard error of the mean.

One may read the melting point as the temperature of the solid-liquid transition. `CC(=O)N1N=C(c2ccc(N)c(C)c2)c2cc(Cl)ccc2C=C1C` gave a melting point of 209 to 211 °C.

`CCC(=O)N1N=C(c2ccc(N)c(C)c2)c2cc(Cl)ccc2C=C1C` registered a melting point of 218 to 221 °C.

Consider `CC(=O)N1N=C(c2ccc(N)cc2)c2cc3c(cc2C=C1C)OCO3` [7-acetyl-5-(4-aminophenyl)-8-methyl-7H-1,3-dioxolo-[4,5-h][2,3]-benzodiazepine, reference compound], for which the “Neuroprotective effect (necrotic brain surface area)” value (“Neuroprotective effect” for short) in the data set with mice [1] (dose 1.0 mg/kg ip.) is recorded as −1; in the data set on mice [1] (dose 3.0 mg/kg ip.) it was −14; in the data set on mice [1] (dose 10.0 mg/kg ip.), −21*. Further, the “dose that statistically significantly decreased the necrotic surface area” value in the data set with mice [1] turned out to be 10 mg/kg i.p.

`CNC(=O)N1N=C(c2ccc(N)c(C)c2)c2cc(Cl)ccc2C=C1C` [Example 8, 1-(4-Amino-3-methylphenyl)-8-chloro-4-methyl-3H-2,3-benzodiazepine-3-carboxylic acid methyl amide] came in with a melting point of 210 to 212 °C. Also, the “MES, ED50” value with mice [2] is 4.1 mg/kg ip. Moreover, the “Neuroprotective effect” value in the data set on mice [1] (dose 0.1 mg/kg ip.) is −5. The “Neuroprotective effect” value in the data set with mice [1] (dose 0.3 mg/kg ip.) is given as −17*. In the data set with mice [1] (dose 1.0 mg/kg ip.), the “Neuroprotective effect” value is −17*. In addition, the “Neuroprotective effect” value in the data set on mice [1] (dose 3.0 mg/kg ip.) is −15*. The “Neuroprotective effect” value with mice [1] (dose 10.0 mg/kg ip.) is −22*. The “dose that statistically significantly decreased the necrotic surface area” value with mice [1] came out at 0.3 mg/kg i.p. In addition, the “BWG (body weight gain)” value in data set [3] was found to be 9.9 ± 3.1 g.

Turning to `CC1=Cc2ccc(Cl)cc2C(c2ccc(N)c(C)c2)=NN1C(=O)NC1CC1` [Example 9, 1-(4-Amino-3-methylphenyl)-8-chloro-4-methyl-3H-2,3-benzodiazepine-3-carboxylic acid cyclopropyl amide], the melting point was in the range of 233 to 236 °C. Also, the “MES, ED50” value with mice [2] was 2.2 mg/kg ip. Besides, in data set [3], the “BWG (body weight gain)” value was 17.7 ± 1.3 g.
